The supplement of paper PMC10307832

Legend:
Test in all cases: relative viability (nuclei count vs DMSO), 5 days (fraction); higher = more cells survive
[1] = compound: CC(C)CCN1c2nc(Nc3cc(F)c(O)c(F)c3)ncc2N(C)C(=O)C1C [BI-D1870] + Nc1ncn([C@H]2C[C@H](O)[C@@H](CO)O2)c(=O)n1 [Decitabine] (partner 2 µM)
How it was run: (§1)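 Five library-drug doses in √10 steps were combined with a fixed anchor-drug dose, or a single drug was given alone, by pin tool to lung cancer cell lines in 1536-well plates the day after seeding. Nuclei were stained and counted after 5 days. Relative viability is the nuclei count in treated wells over that in vehicle wells, taken as the median of duplicate plates.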

[2] = compound: CC(C)CCN1c2nc(Nc3cc(F)c(O)c(F)c3)ncc2N(C)C(=O)C1C [BI-D1870] + N=C(N)NC(=N)NCCc1ccccc1 [Phenformin] (partner 250 µM)
How it was run: as §1

[3] = compound: CC(C)CCN1c2nc(Nc3cc(F)c(O)c(F)c3)ncc2N(C)C(=O)C1C [BI-D1870] + CC(=O)Nc1cccc(-n2c(=O)n(C3CC3)c(=O)c3c(Nc4ccc(I)cc4F)n(C)c(=O)c(C)c32)c1 [Trametinib] (partner 0.02 µM)
How it was run: as §1

[4] = compound: O=c1ncccn1[C@@H]1O[C@H](CO)[C@@H](O)[C@H]1O [Zebularine] + CC1(C)CCC(c2ccc(Cl)cc2)=C(CN2CCN(c3ccc(C(=O)NS(=O)(=O)c4ccc(N[C@H](CCN5CCOCC5)CSc5ccccc5)c(S(=O)(=O)C(F)(F)F)c4)cc3)CC2)C1 [Navitoclax] (partner 0.5 µM)
How it was run: as §1

Cell Line | relative viability ([1]; first compound 0.04 µM) | relative viability ([1]; first compound 0.1265 µM) | relative viability ([1]; first compound 0.4 µM) | relative viability ([1]; first compound 1.265 µM) | relative viability ([1]; first compound 4 µM) | relative viability ([2]; first compound 0.04 µM) | relative viability ([2]; first compound 0.1265 µM) | relative viability ([2]; first compound 0.4 µM) | relative viability ([2]; first compound 1.265 µM) | relative viability ([2]; first compound 4 µM) | relative viability ([3]; first compound 0.04 µM) | relative viability ([3]; first compound 0.1265 µM) | relative viability ([3]; first compound 0.4 µM) | relative viability ([3]; first compound 1.265 µM) | relative viability ([3]; first compound 4 µM) | relative viability ([4]; first compound 1 µM) | relative viability ([4]; first compound 3.162 µM) | relative viability ([4]; first compound 10 µM) | relative viability ([4]; first compound 31.62 µM) | relative viability ([4]; first compound 100 µM)
LC-2-ad | 0.834 | 0.72 | 0.842 | 0.893 | 0.791 | 0.586 | 0.657 | 0.502 | 0.636 | 0.54 | 0.897 | 0.848 | 0.957 | 0.956 | 0.882 | 0.409 | 0.422 | 0.291 | 0.33 | 0.137
CAL-12T |  |  |  |  |  | 0.647 | 0.452 | 0.583 | 0.461 | 0.302 | 0.353 | 0.305 | 0.405 | 0.351 | 0.311 | 1.53 | 1.32 |  | 1.28 | 0.918
RERF-LC-KJ | 0.661 | 0.671 | 0.675 | 0.745 | 0.519 | 0.422 | 0.396 | 0.407 | 0.435 | 0.285 | 0.901 | 0.752 | 0.863 | 0.837 | 0.693 |  | 1.08 | 0.507 | 0.939 | 0.968
NCI-H1650 | 0.405 | 0.43 | 0.554 | 0.572 | 0.589 | 0.368 | 0.362 | 0.358 | 0.414 | 0.304 | 0.705 | 0.551 | 0.573 | 0.64 | 0.552 | 1.06 | 1.06 |  | 1.21 | 0.704
BEN | 0.748 | 0.617 | 0.733 | 0.738 | 0.844 | 0.272 | 0.29 | 0.273 | 0.314 | 0.243 | 1.01 | 0.896 | 1.05 | 1.04 | 0.963 | 0.0641 | 0.0628 | 0.162 | 0.0748 | 0.0383
EMC-BAC-2 | 1.02 | 0.985 | 1.01 | 1.27 | 1.02 | 0.578 | 0.519 | 0.53 | 0.549 | 0.499 | 1.05 | 0.852 | 0.89 | 1.13 | 1.09 | 1.35 | 1.15 | 0.683 | 1.28 | 1.3
LU99A | 0.883 | 0.814 | 0.898 | 0.837 | 0.725 | 1.05 | 0.804 | 0.799 | 0.634 | 0.72 | 0.513 | 0.436 | 0.519 | 0.511 | 0.533 | 0.827 | 0.635 | 0.596 | 0.408 | 0.166
